Measured values from patent US11040947B2, “Substituted quinazolines as matrix metalloproteinase-9 hemopexin domain inhibitors” (The Research Foundation for The State University of New York, priority 2017, dated 2021).

Legend:
proMMP-9 [1] = biological target: T1, proMMP-9 (Homo sapiens, UniProt P14780); assay: proMMP-9 tryptophan fluorescence blue shift binding assay
T1 construct: Purified recombinant MMP-9 (50 nmol/L) or MMP-9/MMP-2PEX (50 nmol/L) was diluted in buffer
Experimental: A blue shift in proMMP-9 tryptophan fluorescence was monitored to determine the binding affinity of all compounds. Binding of a test compound to MMP-9 was assayed by observing the change of tryptophan emission upon binding. Purified recombinant MMP-9 (50 nmol/L) or MMP-9/MMP-2PEX (50 nmol/L) was diluted in buffer (50 mmol/L Tris-HCl, 60 mmol/L KCl, and 0.05% Tween 20, pH 7.4) in the presence or absence of the test compound. As a control for protein stability and loss, an analogous buffer solution was added to the protein. The protein sample was excited at 280 nm and emission scans were collected from 290 to 400 nm, using slit widths of 0.3 nm on a QM 4/200SE spectrofluorimeter with double excitation and emission monochromators. Three emission scans were collected and averaged at each concentration. The Kd was determined using the Prism software package (GraphPad V5) to fit the data to Equation (Δ). λmax=(λmax^∞×[2])/(Kd+[2]) (A) in which λmax is the wavelength at which maximal fluorescence of the protein was observed.

[2] = system: proMMP9-mediated migration of COS-1 cells; assay: two-dimensional collagen dot migration assay, COS-1 cells overexpressing proMMP-9; assay type: cell-based; details: 50 μM
Experimental: This assay was initially used to test the efficacy of analogs at a single concentration, 50 μM.
Cells were mixed with type I collagen solution with or without compound, dotted onto a 96-well plate, and allowed to migrate for 18 hours. They were then fixed, stained and scored for extent of migration.

proMMP-9 [3] = biological target: T1, proMMP-9; assay: saturated transfer difference (STD) NMR, proMMP-9; assay type: binding; details: saturation of 1.12 ppm resonance
Experimental: As an additional test of binding selectivity, saturated transfer difference (STD) NMR was performed with purified recombinant proMMP-2 and proMMP-9 protein. ProMMP-2 and proMMP-9 are highly similar in structure and function, belonging to the same subfamily of MMPs known as the type IV collagenases and/or gelatinases. Thus proMMP-2 constitutes the best control for testing the selectivity of the PEX-9 inhibitor. Selective saturation of the 1.12 ppm resonance (proMMP-2 and proMMP-9) was used for STD NMR spectra. […] Thus, binding specificity is maintained upon increasing binding affinity.

[4] = system: proMMP9-mediated migration of COS-1 cells; assay: two-dimensional dot migration assay, COS-1 cells stably expressing proMMP-9; assay type: cell-based
Experimental: (§1) To test whether compound 3c is specific for inhibiting only proMMP9-mediated migration, a two-dimensional dot migration assay was performed using COS-1 cells engineered to stably express vector control pQCXIP, proMMP-2, proMMP-9, or proMMP-14 cDNA vectors. An immunoblot was performed to confirm protein expression and proper localization of each MMP (MMP-2/-9 are secreted while MMP-14 is membrane bound).

[5] = system: proMMP-2-mediated migration of COS-1 cells; assay: two-dimensional dot migration assay, COS-1 cells stably expressing proMMP-2; assay type: cell-based
Experimental: as §1

[6] = system: proMMP-14-mediated migration of COS-1 cells; assay: two-dimensional dot migration assay, COS-1 cells stably expressing proMMP-14; assay type: cell-based
Experimental: as §1

[7] = biological target: T2, APMA-activated recombinant proMMP-9 (Homo sapiens, UniProt P14780); assay: MMP-9 catalytic activity with fluorogenic peptide; assay type: biochemical; details: 10 μM fluorogenic peptide, monitored over 2 hours
T2 construct: made in house
T2 sequence (P14780 107-707 limits assumed): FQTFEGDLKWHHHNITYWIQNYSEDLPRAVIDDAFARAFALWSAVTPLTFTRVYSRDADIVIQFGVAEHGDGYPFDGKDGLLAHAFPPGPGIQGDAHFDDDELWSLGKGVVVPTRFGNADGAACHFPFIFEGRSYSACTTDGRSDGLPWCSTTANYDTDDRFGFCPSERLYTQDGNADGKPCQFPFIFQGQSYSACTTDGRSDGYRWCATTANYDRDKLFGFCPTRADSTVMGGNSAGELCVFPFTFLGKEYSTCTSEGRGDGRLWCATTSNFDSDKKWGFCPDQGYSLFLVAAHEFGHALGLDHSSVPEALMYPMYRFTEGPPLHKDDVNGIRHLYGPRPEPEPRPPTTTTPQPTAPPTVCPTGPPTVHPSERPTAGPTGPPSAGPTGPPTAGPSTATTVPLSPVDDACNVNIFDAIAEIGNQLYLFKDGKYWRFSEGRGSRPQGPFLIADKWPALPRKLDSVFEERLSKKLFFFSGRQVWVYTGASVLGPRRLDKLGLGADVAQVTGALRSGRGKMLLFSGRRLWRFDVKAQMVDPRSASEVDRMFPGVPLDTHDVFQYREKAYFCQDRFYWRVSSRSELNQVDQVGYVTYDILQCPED
Experimental: Recombinant proMMP-9 protein was purified and incubated overnight in a 37° C. water bath in TNC buffer+1 mM APMA to artificially activate the protein.

[8] = system: HT1080 fibrosarcoma cells; assay: chronic toxicity in HT1080 cells; assay type: cell-based, Human; details: 100 μM, HT1080 cells re-treated every three days for nine days
Experimental: Compound 3c was evaluated for acute cytotoxicity. COS-1 cells stably expressing either vector control or proMMP-9 cDNA were treated with 50 μM 3c for 24 hours. As negative and positive controls, cells were treated with DMSO alone or 100 nM staurosporine (STS), an apoptosis inducer, respectively. […] A non-statistically significant 8% decrease in cell growth occurred after treatment with 50 μM of compound 3c. These experiments were repeated in endogenous MMP-9 expressing HT1080 fibrosarcoma cells, which were analyzed for chronic toxicity (cells were re-treated every three days for a total of nine days).

MMP-9 dimer = biological target: T3, MMP-9 dimer (Homo sapiens, UniProt P14780); assay: MMP-9 dimer formation, Myc/HA co-immunoprecipitation in HT1080 cells; assay type: cell-based; details: 50 μM overnight, compared to control compound 1f
T3 construct: expressed in transfected cells; host or cells: HT1080 human fibrosarcoma cells
T3 sequence (P14780 94-707): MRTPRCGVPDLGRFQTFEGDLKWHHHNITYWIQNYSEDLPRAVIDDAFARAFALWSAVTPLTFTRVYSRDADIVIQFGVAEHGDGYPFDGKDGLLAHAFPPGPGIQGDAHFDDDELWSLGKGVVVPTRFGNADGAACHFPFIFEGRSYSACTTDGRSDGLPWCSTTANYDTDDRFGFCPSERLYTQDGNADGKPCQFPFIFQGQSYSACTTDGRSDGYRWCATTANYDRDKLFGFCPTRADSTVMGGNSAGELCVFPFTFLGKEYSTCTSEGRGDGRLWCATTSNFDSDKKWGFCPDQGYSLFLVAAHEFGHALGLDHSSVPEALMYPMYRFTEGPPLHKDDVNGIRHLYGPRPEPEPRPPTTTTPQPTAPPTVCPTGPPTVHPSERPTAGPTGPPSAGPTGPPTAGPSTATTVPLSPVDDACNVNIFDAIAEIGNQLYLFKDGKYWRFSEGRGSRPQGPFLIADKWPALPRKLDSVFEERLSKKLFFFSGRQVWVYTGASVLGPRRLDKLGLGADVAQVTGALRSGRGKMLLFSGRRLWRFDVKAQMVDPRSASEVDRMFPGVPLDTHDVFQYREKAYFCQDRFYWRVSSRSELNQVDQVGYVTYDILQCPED
Text: Human fibroscarcoma HT1080 cells were co-transfected with MMP-9 cDNAs tagged with either a Myc or HA tag as previously reported. […] Using Myc antibody for immunoprecipitation and HA antibody for immunoblotting, the formation of dimeric MMP-9 was monitored.

[9] = biological target: T4, MMP-9 association with CD44 and EGFR (Homo sapiens, UniProt P14780); assay: co-immunoprecipitation of endogenous CD44 and EGFR with MMP-9 in HT1080 cells; assay type: cell-based; details: 50 μM overnight
T4 construct: expressed in transfected cells; host or cells: HT1080 human fibrosarcoma cells (MMP-9 transfected; CD44 and EGFR endogenous)
T4 sequence (P14780 94-707): as above

[10] = system: EGFR^Tyr1068, AKT^Ser473, Erk1/2^Thr202/Tyr204 phosphorylation; assay: phosphorylation of EGFR and downstream targets in HT1080 cells; assay type: cell-based, Human; details: 50 μM overnight
[11] = biological target: T5, MMP-9 interaction with α4/β1 integrin (Homo sapiens, UniProt P14780); assay: co-immunoprecipitation of endogenous integrin with MMP-9 in HT1080 cells; assay type: cell-based; details: 50 μM
T5 construct: expressed in transfected cells; host or cells: HT1080 cells (MMP-9 transfected; integrin endogenous)
T5 sequence (P14780 94-707): as above
Experimental: (§2) HT1080 cells transiently co-transfected with tagged MMP-9 cDNAs were prepared as described above.

[12] = system: Src^Tyr418, FAK^Tyr576/577, PAX^Tyr118 phosphorylation; assay: phosphorylation of Src and downstream targets in HT1080 cells; assay type: cell-based, Human; details: 50 μM
Experimental: as §2

[13] = system: MMP-9 at the cell surface of HT1080 cells; assay: MMP-9 cell surface localization, immunofluorescence in HT1080 cells; assay type: cell-based, Human
Experimental: HT1080 cells were fixed in 4% paraformaldehyde then subsequently incubated with anti-MMP-9 in addition to anti-α4 and/or β1 integrin antibodies to monitor relative levels of localization of these proteins at the cell surface. The cells were counterstained with DAPI nuclear dye.

[14] = system: FAK and PAX adhesion junctions in HT1080 cells; assay: focal adhesion complexes, immunofluorescence in HT1080 cells; assay type: cell-based, Human; details: 50 μM overnight
[15] = system: EGFR-CD44 and EGFR-β1 integrin interaction; assay: EGFR co-IP assay with CD44 and β1 integrin in HT1080 cells; assay type: cell-based, Human; details: 50 μM
Experimental: HT1080 cells were treated with 50 μM 3c, 1a, 1f or DMSO alone. Cell lysates were collected and analyzed by a co-IP assay in which endogenous EGFR was captured with an anti-EGFR antibody and served as an input control. CD44 and β1 integrin were individually probed on the immunoblot.

HT1080 cells = assay: chorioallantoic membrane (CAM) assay, angiogenesis; assay type: in vivo, chicken embryo; details: 100 μM stock solution (final estimated 0.5 μM), 4-day incubation, vs DMSO and 1f
Experimental: A CAM assay was carried out to evaluate angiogenic and invasive potential of HT1080 cells after treatment with 3c. […] After a 4-day incubation, neovascularization was imaged and quantified.

T1 sequence (P14780 20-707 limits assumed): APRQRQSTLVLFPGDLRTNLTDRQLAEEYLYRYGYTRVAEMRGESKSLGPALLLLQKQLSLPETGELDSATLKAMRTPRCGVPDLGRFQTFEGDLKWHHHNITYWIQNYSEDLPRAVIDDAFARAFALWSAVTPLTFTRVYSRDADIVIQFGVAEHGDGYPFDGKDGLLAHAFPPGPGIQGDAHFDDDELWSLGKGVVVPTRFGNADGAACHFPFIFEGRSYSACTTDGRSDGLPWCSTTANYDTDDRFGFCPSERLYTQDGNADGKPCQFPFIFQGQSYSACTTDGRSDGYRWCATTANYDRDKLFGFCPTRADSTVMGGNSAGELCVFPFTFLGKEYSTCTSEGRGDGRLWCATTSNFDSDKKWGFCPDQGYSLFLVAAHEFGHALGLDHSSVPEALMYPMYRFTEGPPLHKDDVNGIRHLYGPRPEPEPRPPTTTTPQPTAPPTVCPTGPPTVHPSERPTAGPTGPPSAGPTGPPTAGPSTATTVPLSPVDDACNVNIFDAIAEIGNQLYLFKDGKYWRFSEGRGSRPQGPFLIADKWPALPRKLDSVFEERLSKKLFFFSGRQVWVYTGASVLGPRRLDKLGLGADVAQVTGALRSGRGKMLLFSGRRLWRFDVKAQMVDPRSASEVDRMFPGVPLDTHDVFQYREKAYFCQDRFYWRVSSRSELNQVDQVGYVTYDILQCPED

For `O=C(CCCSc1nc2c(c(=O)[nH]1)CCCC2)Nc1ccc(F)cc1` [Compound 3c, N-(4-Fluorophenyl)-4-(4-oxo-3,4,5,6,7,8-hexahydroquinazolin-2-ylthio)butanamide], the “binding to proMMP-9 relative to parent compound 1a” value (proMMP-9 [1]; Kd compared with 1a) was “four times tighter”, the Kd (proMMP-9 [1]; binding to proMMP-9, tryptophan fluorescence) was 320 nM and the “effectiveness among the tested compounds in migration assay” value [2] was “most effective”. The inhibition at 50 µM ([2]; Chlorocebus aethiops, 18 hours) was 90 ± 2%, the “STD NMR peaks in presence of proMMP-9” value (proMMP-9 [3]) was “STD peaks were observed” and the “effectiveness at inhibiting migration compared with 1a” value [4] was “significantly more effective at inhibiting migration”. For the same compound, the “inhibition of proMMP-9-mediated migration” value [4] was “only inhibited proMMP9-mediated migration”, the “inhibition of proMMP-2-mediated migration” value [5] was “only inhibited proMMP9-mediated migration” and the “inhibition of proMMP-14-mediated migration” value [6] was “only inhibited proMMP9-mediated migration”. The “inhibition of MMP-9 catalytic activity” value [7] was “No inhibition of the catalytic activity was observed”, the “cell death, chronic toxicity” value [8] was “No cell death was observed” and the MMP-9 dimer formation (MMP-9 dimer) was “significantly blocked MMP-9 dimer formation”. The “endogenous CD44 and EGFR co-immunoprecipitation” value [9] was “reduced endogenous CD44 and EGFR co-immunoprecipitation”, the “phosphorylation of EGFR^Tyr1068 and downstream targets AKT^Ser473 and Erk1/2^Thr202/Tyr204” value [10] was “reduced phosphorylation” and the “endogenous α4β3 integrin co-immunoprecipitation” value [11] was “reduced endogenous α4β3 integrin co-immunoprecipitation”. The “Src^Tyr418 phosphorylation and phosphorylation of FAK^Tyr576/577 and PAX^Tyr118” value [12] was “reduced Src^Tyr418 phosphorylation”, the “localization of MMP-9 on the cell surface” value [13] was “loss of MMP-9 from the cell surface” and the “formation of FAK and PAX adhesion junctions” value [14] was “A decrease in the formation of FAK and PAX adhesion junctions”. The “interaction between EGFR-CD44 and EGFR-β1 integrin” value [15] was “Decreased interaction between EGFR-CD44 and EGFR-β1 integrin” and the “angiogenic potential of HT1080 cells (neovascularization)” value (HT1080 cells) was “significantly reduced the angiogenic potential of HT1080 cells”.
